Laboratory results from paper PMC12799219, “In vitro and in vivo studies on the activity and selectivity of butoconazole in experimental infection by Trypanosoma cruzi” (Memórias do Instituto Oswaldo Cruz, 2026).
Values joined by “and” are separate entries in the source; they are usually repeats but may differ in a detail not shown here. Identical values can stand only once. “Also recorded” adds a separate entry of the source. Like-named read-outs stand apart in the source and are kept apart here.

Legend:
[1] = tested on: T. cruzi intracellular forms (Tulahuen strain); test: In vitro activity on intracellular forms of T. cruzi in L929 cells (β-galactosidase/CPRG); assay type: cell-based, Trypanosoma cruzi; conditions: for EC90: read-out: Activity against T. cruzi intracellular forms EC90
Method: In vitro activity on intracellular forms of T. cruzi - L929 cells previously seeded in 96-well plates (4 x 10^3 cells/well) were infected (ratio of 10 parasites:1 host cell) for 2 h with trypomastigote forms (Tulahuen strain transfected with the β-galactosidase gene, DTU VI).

[2] = Cytotoxicity assay on L929 fibroblasts (AlamarBlue); assay type: cell-based; conditions: mouse
Method: Mammalian cell cultures - L929 fibroblast lineage were cultured in Roswell Park Memorial Institute 1640 medium without phenol red (RPMI - Sigma-Aldrich, St. Louis, MO, USA), supplemented with 10% foetal bovine serum (FBS - Cultilab - SP - Brazil) and 2 mM glutamine (Sigma-Aldrich, St. Louis, MO, USA) with pH 7.2 - 7.4, as previously reported.[21] H9C2, cardiomyoblast cultures, were maintained in Dulbecco’s Modified Eagle’s Medium (DMEM) high glucose (4500 mg/L) medium supplemented (Sigma-Aldrich, St. Louis, MO, USA) with 10% FBS (Cultilab - SP -Brazil), 2 mM glutamine (Sigma-Aldrich, St. Louis, MO, USA) and 100 μg/mL penicillin/streptomycin (Sigma-Aldrich, St. Louis, MO, USA).[22] Both cell cultures maintained at 37 °C under an atmosphere of 5% CO2, with weekly dissociation protocol using 0.01% trypsin.
Cytotoxicity assay - The toxicity of the compounds was evaluated on two mammalian cell lines (L929 and H9C2), as reported.[21] The cells were seeded in 96-well plates (4 x 10^3 cells/well - for L929; 25x10^3 cells/well - for H9C2) and incubated at 37 °C and 5% CO2. The L929 cultures were kept under treatment for 96 and 168 h with a serial dilution (1:2) of the compounds (up to 400 μM). After the treatment periods, the AlamarBlue® reagent (Thermo Fisher Scientific Inc) was added and incubated for 24 h. The H9C2 cultures were also treated in serial dilution up to 200 μM for 24 h. PrestoBlue® reagent (Thermo Fisher Scientific Inc) was added to the cultures and incubated for 3 h. All plates were analysed in the spectrophotometer SpectraMaxM3 (570 and 600 nm) and LC50 values (concentration capable of inducing loss of viability in 50% of the cells) determined.[21] All assays were done at least twice, in triplicates.

[3] = tested on: T. cruzi intracellular forms (Tulahuen strain) in L929 cell lines; test: Washout assay in L929 cultures infected with T. cruzi; assay type: cell-based, Trypanosoma cruzi; conditions: 10 µM for 168 h, then 168 h drug-free
Method: Washout assays in L929 cultures infected with T. cruzi - L929 cultures were infected with Tulahuen strain as above described and incubated or not for 168 h with 10 µM of BZ and BTZ (37 °C/5% CO2). RPMI culture medium (containing the tested compounds) was replaced every 72 h. Then, the cultures were rinsed with 0.1M PBS, and the drug-free culture medium added for another 168 h, replacing it every 72 h. The number of parasites released into the supernatant and of intracellular forms were analysed by light microscopy and by spectrophotometry (570 nm) after adding CPRG, respectively. The results were expressed as the percentage of reduction in parasite growth compared to untreated cells. BZ was used as a positive treatment control.[25] The data results from two independent experiments done in at least triplicate.

[4] = tested on: T. cruzi bloodstream trypomastigotes (Y strain); test: Mouse model of acute T. cruzi infection: parasitaemia and mortality; assay type: in vivo, Swiss male mice; conditions: for mortality (cumulative death) / parasitaemia peak decline at the 8 dpi: assay 1: BZ 25 mg/kg/day p.o., BTZ 45.61 mg/kg/day i.p.; for mortality (cumulative death) / parasitaemia reduction: five days; for parasitaemia peak decline at the 8 dpi: five days from 5 dpi; for animal mortality: assay 2, lower doses: BZ 10 mg/kg/day p.o.
Method: In vivo analysis in a mouse model of acute T. cruzi infection - Swiss male mice (18 - 20 g) were obtained from the Institute of Sciences and Technologies in Biomodels (ICTB-FIOCRUZ), housed with a maximum of 5 animals per cage and kept in a specific pathogen-free (SPF) room at 20 - 24 °C under a 12 h light/dark cycle. All animals received sterilised water and food ad libitum. The animals were acclimatised for seven days before the experiments. For a proof-of-concept study, animals were infected by i.p (1x10^4) with bloodstream trypomastigotes (Y strain). The drugs administration started at the onset of parasitaemia (5th day dpi), only using mice with detectable parasitaemia.[19] ^, [28] Control mice groups were age-matched and housed under identical conditions. The following experimental groups were used ≥ 3 mice per group: untreated (infected vehicle-treated control) and treated orally (p.o) with BZ (10, 25 and 100 mg/kg/day), corresponding to suboptimal and optimal doses of the reference drug; infected and treated with BTZ (i.p) using concentrations adjusted to be equimolar to BZ doses (18.24, 45.61 and 182.44 mg/kg/day). Also, the following combo was administered: BZ (10 mg/kg/day/p.o) + BTZ (18.24 mg/kg/day/i.p). The animals received the drugs once a day for five consecutive days. A […] optimal dose of BZ (10 mg/kg/day) was chosen to clearly observe any benefit of its association with BTZ. The i.p. route for BTZ was chosen due to its low aqueous solubility.
Parasitaemia and mortality rate - Parasitaemia was performed by collecting 5 μL of the blood from the tail’s vein, disposing it on a slide and covering with coverslips (18 x 18 mm) for direct counting of parasites observed in 50 fields under light microscope (40X magnification).[19] ^, [28] The mortality was followed daily up to 30 days after the end of treatment and expressed as a percentage of cumulative mortality (% CM).[19] ^, [27] In vivo assays were conducted with n = 5 per group.

[5] = Trypanosoma cruzi, TULAHUEN, L929, 96 h, read-out: Activity against T. cruzi intracellular forms EC50, Tulahuen strain in L929, 96 h
[6] = assay 2, higher doses: BZ 100 mg/kg/day p.o., BTZ 182.44 mg/kg/day i.p.
[7] = assay 2, lowest doses: BZ 10 mg/kg/day p.o., BTZ 18.24 mg/kg/day i.p.

| SMILES | EC50 ([1]; Trypanosoma cruzi, TULAHUEN, L929, 96 h, Tulahuen strain in L929, 96 h, read-out: Activity against T. cruzi intracellular forms pEC50 (converted)) [µM] | EC50 [1, 5] [µM] | EC90 ([1]; Trypanosoma cruzi, Tulahuen strain in L929, 96 h) [µM] | EC50 ([1]; Tulahuen strain in L929, 96 h, read-out: Activity against T. cruzi intracellular forms EC50) [µM] | CC50 at 96 h [2] [µM] | CC50 at 168 h [2] [µM] | EC50 at 168 h [2] [µM] | Washout: reduction in the number of intracellular forms [3] | Washout: reduction in the number of released parasites [3] [%] | mortality (cumulative death) [4] [%] | parasitaemia peak decline at the 8 dpi [4] [%] | animal survival [4, 6] [%] | parasitaemia reduction [4, 6] | animal mortality ([4]; BTZ 18.24 mg/kg/day i.p.) [%] | parasitaemia reduction [4, 7] | EC90 ([1]; Trypanosoma cruzi, TULAHUEN, L929, 96 h) [µM] | EC50 ([1]; Trypanosoma cruzi, TULAHUEN, L929, 96 h, read-out: Activity against T. cruzi intracellular forms pEC50, Tulahuen strain in L929, 96 h (converted)) [µM] | EC50 at 168 h ([2]; L929 fibroblast cells, printed in the 168 h column, read-out: Cytotoxicity on L929 cells pEC50 (converted)) [µM] |
| --- | --- | --- | --- | --- | --- | --- | --- | --- | --- | --- | --- | --- | --- | --- | --- | --- | --- | --- |
| Clc1ccc(CCC(Cn2ccnc2)Sc2c(Cl)cccc2Cl)cc1 (centres unmarked) [BTZ, butoconazole] | 0.0708 | 0.075 | 3.88 ± 0.45 | 0.07 ± 0.02 | 23.9 ± 1.1 | 17.5 ± 3.24 | 24 | > 96% and 96 - 98% and 96 ± 4% | 100 ± 0 | 40 | 50 | 100 | 63% | 75 | only slightly |  |  |  |
| O=C(Cn1ccnc1[N+](=O)[O-])NCc1ccccc1 [BZ, benznidazole] |  | 1.73 ± 0.16 |  |  | > 400 | > 200 |  | 98.6 ± 1.4% | 100 ± 0 | 0 | 93 | 100 | suppressed the peak; also recorded: fully suppressed parasitaemia | 100 | only slightly | 7.65 ± 1.69 | 1.74 | > 200 |
